What is called IC50 is the concentration that gives 50% inhibition. A high value points to lower potency. A word on the inhibition: it is the share of the control response that was lost under treatment. Read a low inhibition as a weak effect. By Km is commonly meant the concentration of substrate that gives half-maximal velocity.

Among the data in paper PMC7827481, “Development of A Continuous Fluorescence-Based Assay for N-Terminal Acetyltransferase D” (International Journal of Molecular Sciences, 2021) are IC50, inhibition and Km values, retold here.

Data set [1] has as its target T1, N-terminal acetyltransferase D (NatD) (Homo sapiens, UniProt Q86UY6).
T1 construct: gene NAA40; full-length human NatD, untagged
Nature of the data set: ThioGlo4 fluorescence acetyltransferase assay. In kind it is biochemical.

The target in data set [2] is T1, N-terminal acetyltransferase D (NatD). Nature of the data set: ThioGlo4 fluorescence acetyltransferase assay; confirmed by MALDI-MS (IC50 […]). The class given is biochemical.
The target is the same in data set [3]. The data set is described as follows: MALDI-MS acetylation inhibition at […] (also […], […] in fluorescence assay). The class given is biochemical.
For data set [4] the target is unchanged. The data set is described as follows: ThioGlo4 fluorescence acetyltransferase assay; confirmed by MALDI-MS ([…] at […]). In kind it is biochemical.
The subject of data set [5] is CC(=O)SCCNC(=O)CCNC(=O)[C@H](O)C(C)(C)COP(=O)(O)OP(=O)(O)OC[C@H]1O[C@@H](n2cnc3c(N)ncnc32)[C@H](O)[C@@H]1OP(=O)(O)O. The data set is described as follows: purified protein. The following applies: AcCoA binding site.

On to `C[C@H](NC(=O)/C(C#N)=C/c1ccc(O)c(O)c1)c1ccccc1` [AG 835], for which half-maximal inhibition in data set [1] (IC50) required 38 ± 2 µM. In data set [2], `O=C(O)C1=CC(=C(c2ccc(O)c(C(=O)O)c2)c2ccc(O)c(C(=O)O)c2)C=CC1=O` [P1401K09, aurintricarboxylic acid] showed an IC50 of 1.5 ± 0.1 µM. `Nc1c(S(=O)(=O)O)cc(Nc2ccc(Nc3nc(Cl)nc(Nc4cccc(S(=O)(=O)O)c4)n3)c(S(=O)(=O)O)c2)c2c1C(=O)c1ccccc1C2=O` [P1404C10, Reactive blue 2] returned an inhibition at 10 µM in data set [3] of 100%. Compound `C[C@@H](NC(=O)/C(C#N)=C/c1ccc(O)c(O)c1)c1ccccc1` [P1404L15, tyrphostin B44(-)] yielded an IC50 in data set [4] of 63 ± 4 µM.

For “N-terminal acetyltransferase D (NatD) (Homo sapiens)”, the Km in data set [5] came out at 0.5 ± 0.06 µM.
